pEC50: −log10 of the molar value.
Assays:
[1] = biological target: T1, CepR (Burkholderia cenocepacia, UniProt B4EMD0); assay: CepR agonism in E. coli β-galactosidase reporter (Ec-reporter) JLD271 [pJN105-cepR + pSC11-cepI]; format: cell-based, B. cenocepacia; conditions: for Act%: Table S2, Ec-reporter
T1 sequence (B4EMD0 1-239): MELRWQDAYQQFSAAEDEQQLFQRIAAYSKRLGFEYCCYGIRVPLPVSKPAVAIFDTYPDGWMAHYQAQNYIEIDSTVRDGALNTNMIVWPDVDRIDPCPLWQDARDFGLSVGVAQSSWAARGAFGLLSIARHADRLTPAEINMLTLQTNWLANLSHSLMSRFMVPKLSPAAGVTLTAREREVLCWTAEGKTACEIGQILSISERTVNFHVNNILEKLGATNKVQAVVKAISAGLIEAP
From the text: (§1) We began our study by screening the AHL library for CepR modulators using an E. coli-based two plasmid reporter system (Ec-reporter)[38]–[40]. Certain members of the Bcc harbor additional QS systems that are either AHL-based (e.g., BviI/BviR in B. vietnamiensis)[41] or diffusible signal factor (DSF)-based (B. cenocepacia)[42], and at least one member of the Bcc has multiple receptors that respond to C8-AHL (e.g., CepR and CepR2 in B. cenocepacia)[43]. Thus, we reasoned that using a CepR reporter in a heterologous background could simplify our initial analyses. We modified our previously reported E. coli-based two plasmid β-galactosidase reporter system to develop a CepR Ec-reporter (see Methods). The first plasmid, pJN105-cepR, contains CepR from B. cenocepacia under the control of the L-arabinose inducible pBAD promoter. A second plasmid contains a transcriptional fusion of lacZ to the cepI promoter region. The two plasmids were co-transformed into a QS mutant E. coli strain (JLD271 ∆sdiA) that lacks its LuxR-type receptor, SdiA. Using this reporter system, if an exogenously -added compound is able to interact with CepR, this will affect the protein’s interaction with the cepI promoter region and alter β-galactosidase production. Enzyme production, and thereby CepR activity, is then measurable via the degradation of a colorimetric substrate for β-galactosidase. Using this new Ec-reporter, we observed robust activity of CepR in response to its native ligand C8-AHL, with an EC50 of 5 nM (Table 1).
We used the CepR Ec-reporter to perform a primary agonism screen at a single compound concentration (100 μM, or its solubility limit, indicated in Table S1). Thirty-one compounds displaying ≥70% agonistic activity in CepR (relative to C8-AHL) were identified and subjected to dose-response analyses using the Ec-reporter (Table I; see Table S2 for complete screening data and Fig. S3 for dose-response curves).
(§2) E. coli β-galactosidase reporter assays (derived from ref.[63]) and reagents used to obtain primary screening and dose-response data were performed as previously described[22],[60],[64], with the following modifications: E. coli JLD271 (∆sdiA) was co-transformed iteratively with pSC11-cepI and pJN105-cepR via electroporation. A single colony was used to start overnight cultures in LB medium + ampicillin (100 μg/mL) + gentamicin (15 μg/mL). A 1:10 dilution of overnight culture was grown in fresh medium to OD600 = 0.25. A sterile solution of L-arabinose in water (27 mM final concentration) was added to induce protein expression, after which cells were plated in 96-well plates containing varying concentrations of compound (200 μL total volume).
(§3) Cells were grown for 4 h, OD600 was read, 50 μL aliquots from each well were permeabilized in 200 μL Z Buffer, and then 150 μL of this mixture used to measure the cleavage of 25 μL of 4 mg/mL CPRG in phosphate buffered saline (PBS) at 37 °C until positive control wells developed a deep red color (~30 min). For all agonism assays, synthetic compound (100 μM) was screened alongside and compared to the native ligand, C8-AHL (100 μM). For all primary and dose-response antagonism assays, the concentration of native ligand utilized was 10 nM (approximately equal to twice its EC50 value). […] At least 3 separate trials were performed using unique cultures on separate days.

[2] = biological target: T1, CepR; assay: CepR antagonism in E. coli β-galactosidase reporter (Ec-reporter), competition against C8-AHL; format: cell-based, B. cenocepacia; conditions: for Inh% (100-Act%): Table S3, Ec-reporter; for CepR antagonism in words: Ec-reporter
From the text: as §1
To identify antagonists of CepR, we screened the AHL library (at 100 μM) in competition against the native ligand C8-AHL (at approximately twice its EC50 value, 0.01 μM) in the Ec-reporter. […] The active compounds were subjected to dose-response analyses in the Ec-reporter to obtain IC50 values and assess their relative potencies (Table 2; see Table S3 for complete screening data and Fig. S3 for dose-response curves). One general trend that we noted at the outset was the majority of the antagonists had acyl tails of similar or shorter overall length than CepR’s native ligand, C8-AHL. From this set, the strongest antagonists could be divided into two classes: (i) “short alkyl tail” AHLs or analogs thereof, and (ii) phenylacetanoyl HLs (PHLs). The discovery that the latter compounds were CepR antagonists was perhaps not surprising, as we have found substituted PHLs to strongly antagonize the majority of the LuxR-type receptors studied in our laboratory to date[22],[24],[29],[45],[46].
as §2, §3

[3] = screening conc. 100 μM, against 10 nM C8-AHL

SMILES	Act% ([1]; screening conc. 100 μM) [%]	Inh% (100-Act%) [2, 3] [%]	also measured
CCCCCCCCS(=O)(=O)N[C@H]1CCOC1=O [Compound A13]	108	17	CepR agonism in words ([1]; Ec-reporter): failed to activate CepR; pEC50 ([1]; Ec-reporter, agonism dose-response): 6.82; Maximal Activation (%) ([1]; Ec-reporter, activity for 100 μM C8-AHL set to 100%, error ±10%): 110%
O=C(Cc1c(F)c(F)c(F)c(F)c1F)N[C@H]1CCOC1=O [Compound C16]	0.1	-30	–
CC(C)(C)OC(=O)c1ccc(C(=O)N[C@H]2CCOC2=O)cc1 [Compound Q13]	6.8	11	–
CCCCCCCCCC(=O)CC(=O)Nc1ccccc1 [3’O-C12-analine, reference compound]	52	16	–
O=C(Cc1cccc([N+](=O)[O-])c1)NC1CCSC1=O (stereo not shown) [Compound F11]	45.0	25	–
O=C(N[C@H]1CCOC1=O)C1CCC(c2ccc(Cl)cc2)CC1 (stereo partly shown) [Compound D14]	–	–	Act% ([1]; screening conc. 40 μM): 54%; Inh% (100-Act%) ([2]; screening conc. 40 μM): -20%
COc1ccc(C(=O)N[C@H]2CCOC2=O)cc1 [Compound Q6]	25	-20	–
CCCCCCCCCC(=O)CC(=O)Nc1cccc(OC)c1 [Control 13, reference compound]	2.0	13	–
Cc1ccc(CC(=O)N[C@H]2CCOC2=O)cc1 [Compound C19]	-1.6	-20	–
O=C(CCc1c[nH]c2ccccc12)N[C@H]1CCOC1=O [Compound B14]	96	-40	–
O=C(Cc1cccc(F)c1)N[C@H]1CCOC1=O [Compound C3]	0.2	20	CepR antagonism in words [2]: inactive as antagonists
COc1ccc(CC(=O)NC2CCSC2=O)cc1 (stereo not shown) [Compound F12]	2.4	-20	–
O=C(N[C@H]1CCOC1=O)c1ccccc1 [Compound B8]	10	1.0	–
O=C(Cc1ccc(F)cc1)N[C@H]1CCOC1=O [Compound C2]	0.1	4.0	CepR antagonism in words [2]: inactive as antagonists
O=C(CC1CCCCC1)N[C@H]1CCOC1=O [Compound S7]	7.6	20	–
CCCCCCCCCCCCCC(O)CC(=O)NC1CCOC1=O (stereo not shown) [3’OH-C16-AHL, reference compound]	8.0	-50	–
O=C(Cc1ccc(C(F)(F)F)cc1)N[C@H]1CCOC1=O [Compound C20]	0.3	-52	–
O=C(CCCc1c[nH]c2ccccc12)N[C@@H]1CCOC1=O [Compound B5]	7.2	-30	–
O=C(Cc1ccc(I)cc1)N[C@H]1CCOC1=O [Compound C10]	29	-10	–
O=C(N[C@H]1CCOC1=O)c1ccc(Cl)cc1 [Compound Q4]	49	-20	–
O=C(N[C@H]1CCOC1=O)c1ccc([N+](=O)[O-])cc1 [Compound Q7]	10	28	–
O=C(CCCC1CCCCC1)N[C@H]1CCOC1=O [Compound S6]	90	-10	–

Reference: paper PMC6748986, “Potent modulation of the CepR quorum sensing receptor and virulence in a Burkholderia cepacia complex member using non-native lactone ligands” (Scientific Reports, 2019)
